Measured values from paper PMC4494889 (Cell reports, 2015).
Substitutions are numbered along the chain they refer to. Read-outs that look alike come from different tables or passages of the source.

How the values were obtained:
RIPK1 [1] = target: T1, RIPK1 (Homo sapiens, UniProt Q13546); test: ADP-Glo in vitro kinase assay, recombinant RIPK1
T1 sequence (Q13546 1-327): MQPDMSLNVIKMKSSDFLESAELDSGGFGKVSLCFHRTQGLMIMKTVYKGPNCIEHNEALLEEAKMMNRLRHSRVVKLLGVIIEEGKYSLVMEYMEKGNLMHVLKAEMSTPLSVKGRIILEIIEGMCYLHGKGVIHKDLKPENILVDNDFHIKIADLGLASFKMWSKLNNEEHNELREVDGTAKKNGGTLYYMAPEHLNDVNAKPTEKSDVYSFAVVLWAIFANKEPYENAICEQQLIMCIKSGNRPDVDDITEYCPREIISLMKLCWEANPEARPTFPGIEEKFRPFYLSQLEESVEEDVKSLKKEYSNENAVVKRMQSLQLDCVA

[2] = test system: FADD-deficient Jurkat cells; test: Jurkat cell necroptosis assay; conditions: for IC50: read-out: IC50, nM Jurkat cell necroptosis assay (RIPK1/3-dependent)
RIPK2 = RIPK2 (Homo sapiens, UniProt O43353); test: ADP-Glo in vitro kinase assay, recombinant RIPK2; type: biochemical
RIPK3 [3] = target: T2, RIPK3 (Homo sapiens, UniProt Q9Y572); test: ADP-Glo in vitro kinase assay, recombinant RIPK3; type: biochemical
[4] = target: T3, RIPK1/RIPK3 “necrosome” complex (Mus musculus, UniProt Q60855); test: Necrosome complex formation, co-IP assay in TCZ-stimulated MEFs; type: cell-based; conditions: TCZ 6 hr, RIPK3 immunoprecipitation
T3 sequence (Q60855 1-656): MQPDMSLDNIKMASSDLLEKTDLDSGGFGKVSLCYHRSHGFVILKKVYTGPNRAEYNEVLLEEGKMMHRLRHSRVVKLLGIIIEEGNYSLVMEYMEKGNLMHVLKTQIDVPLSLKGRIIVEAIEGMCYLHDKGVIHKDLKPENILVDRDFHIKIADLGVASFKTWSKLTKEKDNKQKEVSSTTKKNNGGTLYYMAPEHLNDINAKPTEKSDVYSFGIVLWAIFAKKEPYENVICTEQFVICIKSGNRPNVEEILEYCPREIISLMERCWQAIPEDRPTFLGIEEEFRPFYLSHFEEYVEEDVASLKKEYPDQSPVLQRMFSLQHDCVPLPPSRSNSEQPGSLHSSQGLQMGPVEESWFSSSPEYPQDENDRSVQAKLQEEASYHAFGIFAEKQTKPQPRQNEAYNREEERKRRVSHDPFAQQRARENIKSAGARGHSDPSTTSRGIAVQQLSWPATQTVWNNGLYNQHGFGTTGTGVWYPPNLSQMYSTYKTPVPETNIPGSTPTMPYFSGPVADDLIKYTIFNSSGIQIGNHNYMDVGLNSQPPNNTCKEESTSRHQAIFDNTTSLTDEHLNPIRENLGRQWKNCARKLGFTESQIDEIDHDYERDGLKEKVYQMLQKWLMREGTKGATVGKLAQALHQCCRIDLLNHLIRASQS

MEFs [5] = test: TCZ; type: cell-based; conditions: 50 ng/ml mouse TNFα, 200 ng/ml cycloheximide, 25 μM zVAD.fmk, 18 hr
MEFs [6] = test: poly; type: cell-based, mouse; conditions: 5 μg/ml poly(I:C), 50 μM zVAD.fmk, 24 hr
RIPK1−/− MEFs = test: IFNγ-induced RIPK3-dependent cell death; conditions: 10 ng/ml IFNγ, 24 hr
MEFs [7] = test: RIPK1-dependent apoptosis of MEFs; conditions: 10 ng/ml mouse TNFα + 100 nM 5z-7-oxozeaenol, 24 hr
RIPK3 [8] = target: T2, RIPK3; test: 32P autophosphorylation assay, recombinant RIPK3; type: biochemical; conditions: 2 μM kinase
RIPK1 [9] = target: T1, RIPK1; test: 32P autophosphorylation assay, recombinant RIPK1; type: biochemical; conditions: 2 μM kinase
[10] = test system: TNFα mRNA in FADD-deficient Jurkat cells; test: RIPK1-dependent TNFα mRNA upregulation, qRT-PCR, Jurkat; type: cell-based; conditions: 10 ng/ml human TNFα, 8 hr
TNFα mRNA in iBMM cells = test: RIPK1-dependent TNFα mRNA upregulation, qRT-PCR, iBMM; type: cell-based, mouse; conditions: 10 ng/ml LPS and 50 μM zVAD.fmk, 7 hr
Abl = Abl (Homo sapiens, UniProt P00519); test: ADP-Glo in vitro kinase assay, recombinant Abl; type: biochemical; conditions: read-out: IC50, nM ADPGlo, Abl; recombinant Abl (1 ng)
[11] = test system: TNFα toxicity in C57BL6/J mice; test: TNF-induced injury in vivo; conditions: for protection from TNFα toxicity in vivo: 15 min before 5 μg/mouse mouse TNFα i.v.; for activity with respect to survival and injury markers: 0.4 mg/kg i.p., versus Nec-1
[12] = test system: diversity set of 97 kinases (90 wild type kinase and 7 mutants); type: binding, human; conditions: 1 μM
DYRK1b = DYRK1b (Homo sapiens, UniProt Q9Y463); test: ScanEDGE; type: binding; conditions: 1 μM
RIPK1 [13] = target: T4, RIPK1 (Homo sapiens, UniProt Q13546); test: ScanEDGE; type: binding; conditions: 1 μM
T4 sequence (Q13546 1-671): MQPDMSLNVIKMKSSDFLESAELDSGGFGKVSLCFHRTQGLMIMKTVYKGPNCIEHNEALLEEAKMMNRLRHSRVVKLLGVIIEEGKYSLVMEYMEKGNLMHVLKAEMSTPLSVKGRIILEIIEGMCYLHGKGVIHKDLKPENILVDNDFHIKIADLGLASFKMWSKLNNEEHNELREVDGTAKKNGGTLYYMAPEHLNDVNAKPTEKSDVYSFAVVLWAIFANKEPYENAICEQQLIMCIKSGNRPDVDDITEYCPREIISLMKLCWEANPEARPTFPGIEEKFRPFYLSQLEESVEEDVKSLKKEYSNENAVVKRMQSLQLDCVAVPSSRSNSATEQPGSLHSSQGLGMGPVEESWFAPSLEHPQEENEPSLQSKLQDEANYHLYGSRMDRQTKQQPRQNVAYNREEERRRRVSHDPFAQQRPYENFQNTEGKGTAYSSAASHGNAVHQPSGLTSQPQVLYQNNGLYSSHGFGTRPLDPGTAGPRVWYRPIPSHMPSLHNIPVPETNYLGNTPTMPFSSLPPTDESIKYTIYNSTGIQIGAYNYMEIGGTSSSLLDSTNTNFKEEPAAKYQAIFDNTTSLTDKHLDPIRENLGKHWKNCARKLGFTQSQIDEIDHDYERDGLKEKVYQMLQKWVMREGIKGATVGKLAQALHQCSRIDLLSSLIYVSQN

RIPK1 [14] = target: T1, RIPK1; test: HTRF assay of RIPK1; type: biochemical
L157F/M92T RIPK1 = target: T5, L157F/M92T RIPK1 (Homo sapiens, UniProt Q13546, L157F/M92T); test: 32P autophosphorylation assay, L157F/M92T RIPK1; type: biochemical; conditions: FLAG-tagged kinase (a.a. 1–327) from HEK293T cells
T5 sequence (Q13546 1-327 M92T/L157F): T1 sequence (Q13546 1-327) with M92T, L157F

[15] = read-out: IC50, nM ADPGlo, RIPK1, recombinant RIPK1 (20 ng)
[16] = read-out: IC50, nM ADPGlo, RIPK2, recombinant RIPK2 (10 ng)
[17] = read-out: IC50, nM ADPGlo, RIPK3, recombinant RIPK3 (20 ng)

T2 sequence (Q9Y572 whole entry, species assumed): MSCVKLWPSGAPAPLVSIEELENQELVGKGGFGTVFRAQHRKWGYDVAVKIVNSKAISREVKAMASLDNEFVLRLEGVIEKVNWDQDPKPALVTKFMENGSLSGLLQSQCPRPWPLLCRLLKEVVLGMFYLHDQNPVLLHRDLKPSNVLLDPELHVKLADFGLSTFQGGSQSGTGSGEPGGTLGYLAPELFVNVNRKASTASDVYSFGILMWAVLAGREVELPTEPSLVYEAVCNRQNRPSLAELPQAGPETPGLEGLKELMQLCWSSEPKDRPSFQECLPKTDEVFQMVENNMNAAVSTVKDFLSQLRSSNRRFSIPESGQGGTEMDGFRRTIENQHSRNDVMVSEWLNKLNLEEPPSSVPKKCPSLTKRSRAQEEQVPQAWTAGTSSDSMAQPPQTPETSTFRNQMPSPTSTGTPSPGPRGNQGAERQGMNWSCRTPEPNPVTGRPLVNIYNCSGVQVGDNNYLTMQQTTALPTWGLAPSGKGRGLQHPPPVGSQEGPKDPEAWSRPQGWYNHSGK
Sequence of RIPK2 (O43353 whole entry, species assumed): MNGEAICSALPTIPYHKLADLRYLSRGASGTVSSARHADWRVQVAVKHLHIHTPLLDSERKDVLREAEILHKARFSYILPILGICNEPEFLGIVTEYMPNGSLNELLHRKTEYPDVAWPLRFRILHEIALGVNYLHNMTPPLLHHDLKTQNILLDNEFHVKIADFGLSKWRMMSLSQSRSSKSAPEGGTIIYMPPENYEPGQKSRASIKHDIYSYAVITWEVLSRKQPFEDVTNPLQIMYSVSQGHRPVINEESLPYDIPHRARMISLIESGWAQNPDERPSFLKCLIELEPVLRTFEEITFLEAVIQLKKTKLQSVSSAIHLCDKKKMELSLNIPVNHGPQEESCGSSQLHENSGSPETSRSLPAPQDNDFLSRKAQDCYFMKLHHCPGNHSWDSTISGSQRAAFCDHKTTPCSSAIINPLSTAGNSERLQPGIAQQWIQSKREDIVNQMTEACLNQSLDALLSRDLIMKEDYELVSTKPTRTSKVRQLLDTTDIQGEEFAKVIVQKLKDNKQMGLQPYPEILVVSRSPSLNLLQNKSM
Sequence of Abl (P00519 whole entry, species assumed): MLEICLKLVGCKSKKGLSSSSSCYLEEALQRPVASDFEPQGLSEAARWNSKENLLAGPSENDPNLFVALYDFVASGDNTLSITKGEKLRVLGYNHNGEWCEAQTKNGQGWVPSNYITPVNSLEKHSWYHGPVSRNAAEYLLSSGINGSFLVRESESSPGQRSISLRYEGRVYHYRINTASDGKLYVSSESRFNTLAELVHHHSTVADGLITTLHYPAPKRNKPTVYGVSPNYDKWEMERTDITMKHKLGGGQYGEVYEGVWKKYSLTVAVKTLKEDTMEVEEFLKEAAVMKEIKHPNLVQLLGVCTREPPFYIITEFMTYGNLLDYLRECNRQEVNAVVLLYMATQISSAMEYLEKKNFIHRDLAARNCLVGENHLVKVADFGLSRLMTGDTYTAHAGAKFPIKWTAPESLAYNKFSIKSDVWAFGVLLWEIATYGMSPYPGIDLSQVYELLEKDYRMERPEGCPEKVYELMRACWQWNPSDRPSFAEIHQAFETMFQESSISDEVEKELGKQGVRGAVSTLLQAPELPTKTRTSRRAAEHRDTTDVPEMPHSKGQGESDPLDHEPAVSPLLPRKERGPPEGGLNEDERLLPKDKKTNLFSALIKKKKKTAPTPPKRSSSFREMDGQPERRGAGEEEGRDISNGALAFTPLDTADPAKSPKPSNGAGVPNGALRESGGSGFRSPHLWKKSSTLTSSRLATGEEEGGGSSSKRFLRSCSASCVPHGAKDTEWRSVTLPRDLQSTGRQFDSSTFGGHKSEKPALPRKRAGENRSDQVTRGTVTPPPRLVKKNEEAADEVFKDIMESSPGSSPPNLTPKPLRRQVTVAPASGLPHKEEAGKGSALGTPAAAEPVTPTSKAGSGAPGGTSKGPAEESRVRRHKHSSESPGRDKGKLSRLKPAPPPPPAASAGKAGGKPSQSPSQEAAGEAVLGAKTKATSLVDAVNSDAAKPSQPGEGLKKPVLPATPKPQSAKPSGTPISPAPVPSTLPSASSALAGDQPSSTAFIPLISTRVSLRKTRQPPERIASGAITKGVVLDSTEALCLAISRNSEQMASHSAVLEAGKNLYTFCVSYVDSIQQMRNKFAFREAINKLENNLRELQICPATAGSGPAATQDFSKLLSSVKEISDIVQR
Sequence of DYRK1b (Q9Y463 whole entry): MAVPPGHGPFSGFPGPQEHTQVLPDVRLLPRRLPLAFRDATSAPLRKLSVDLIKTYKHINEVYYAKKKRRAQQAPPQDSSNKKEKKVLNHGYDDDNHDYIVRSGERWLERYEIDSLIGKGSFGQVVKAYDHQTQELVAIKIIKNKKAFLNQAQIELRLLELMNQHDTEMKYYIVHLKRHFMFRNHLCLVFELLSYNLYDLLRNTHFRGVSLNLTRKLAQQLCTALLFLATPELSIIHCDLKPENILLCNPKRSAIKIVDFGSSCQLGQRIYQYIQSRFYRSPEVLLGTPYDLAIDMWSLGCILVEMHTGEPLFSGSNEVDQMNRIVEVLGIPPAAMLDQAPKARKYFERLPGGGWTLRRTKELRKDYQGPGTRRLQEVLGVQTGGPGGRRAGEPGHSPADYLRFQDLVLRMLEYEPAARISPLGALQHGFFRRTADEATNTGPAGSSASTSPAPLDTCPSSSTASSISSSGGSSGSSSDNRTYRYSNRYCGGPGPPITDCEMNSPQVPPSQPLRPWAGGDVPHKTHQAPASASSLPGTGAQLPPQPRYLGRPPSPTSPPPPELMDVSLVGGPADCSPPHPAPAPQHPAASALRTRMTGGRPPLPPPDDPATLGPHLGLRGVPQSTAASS

| SMILES | IC50 ([2]; 10 ng/ml human TNFα, 24 hr) | IC50 (RIPK2; [16]) | IC50 (RIPK3 [3]; [17]) | inhibition of necrosome complex formation [4] | inhibition of IFNγ-induced cell death (RIPK1−/− MEFs) | inhibition of RIPK3 in 32P autophosphorylation assay (RIPK3 [8]) | inhibition of RIPK1 in 32P autophosphorylation assay (RIPK1 [9]) | inhibition of TNFα mRNA upregulation, Jurkat cells [10] | inhibition of TNFα mRNA upregulation, immortalized macrophages (TNFα mRNA in iBMM cells) | IC50 (Abl) | protection from TNFα toxicity in vivo ([11]; 1 mg/kg i.p.) | other results |
| --- | --- | --- | --- | --- | --- | --- | --- | --- | --- | --- | --- | --- |
| CN1CCN(Cc2ccc(NC(=O)c3cccc(C#Cc4cnc5cccnn45)c3)cc2C(F)(F)F)CC1 [CS1] | 219 nM | 63 nM | 7.4 nM |  |  |  |  |  |  |  |  | IC50 (RIPK1 [1]; [15]): 42 nM |
| CNC(=O)c1cc(Oc2ccc(NC(=O)Nc3cc(C(C)(C)C)nn3-c3ccc4ncccc4c3)c(F)c2)ccn1 [DCC-2036] |  |  |  |  |  |  |  |  |  |  |  | IC50 (RIPK1 [1]): 5.7 nM; cellular activity, fold lower than ponatinib ([2]; versus ponatinib): > 10 fold; IC50 (RIPK2): 520 nM; IC50 (RIPK3 [3]): 18 nM |
| Cc1cc(-c2cnc(N)c3c(-c4ccc5scnc5c4)csc23)n(C)n1 [GSK-843] |  |  |  | not affected |  |  |  |  |  |  |  | protection from TCZ-induced cell death (MEFs [5]): efficiently protecting cells |
| CC(C)S(=O)(=O)c1ccc2nccc(Nc3ccc4scnc4c3)c2c1 [GSK-872] |  |  |  | not affected | blockade of cell death |  |  |  |  |  |  | inhibition of poly(I:C)/zVAD.fmk-induced cell death (MEFs [6]): inhibit; protection from TCZ-induced cell death (MEFs [5]): efficiently protecting cells; protection from RIPK1-dependent, RIPK3-independent apoptosis (MEFs [7]): did not inhibit RIPK1-dependent apoptosis |
| Cc1ccc(NC(=O)c2ccc(CN3CCN(C)CC3)cc2)cc1Nc1nccc(-c2cccnc2)n1 [Gleevec, Imatinib] |  |  |  |  | Neither Gleevec nor Nilotininb | neither inhibited | neither inhibited |  |  |  |  | prevention of necroptosis ([2]; 10 ng/ml human TNFα, 24 hr): nor prevented necroptosis |
| CN1C(=O)NC(Cc2c[nH]c3c(Cl)cccc23)C1=O (centres unmarked) [Nec-1, 7-Cl-O-Nec-1] | 210 nM | > 10000 nM | > 10000 nM | efficiently blocked necrosome assembly |  | only inhibited RIPK1 | only inhibited RIPK1 | inhibited | inhibited | > 10000 nM | significant protection from injury | inhibition of poly(I:C)/zVAD.fmk-induced cell death (MEFs [6]): marginal protection; circulating levels of IL-6 ([11]; 1 mg/kg i.p.): reduced; survival of the animals ([11]; 1 mg/kg i.p.): prevented death of the animals |
| COc1ccc2c(c1)C1=NN(C(C)=O)C(c3ccc(F)cc3)C1CC2 (centres unmarked) [Nec-3] | 260 nM | > 10000 nM | > 10000 nM |  |  |  |  |  |  | > 10000 nM |  | IC50 (RIPK1 [1]; [15]): 840 nM |
| Cc1cn(-c2cc(NC(=O)c3ccc(C)c(Nc4nccc(-c5cccnc5)n4)c3)cc(C(F)(F)F)c2)cn1 [Nilotininb] |  |  |  |  | Neither Gleevec nor Nilotininb |  |  |  |  |  |  |  |
| Cc1ccc(CCCCN2C(=O)NC(Cc3c[nH]c4c(Cl)cccc34)C2=O)cc1C#Cc1cnc2cccnn12 (centres unmarked) [PN10] |  | 1400 nM |  | efficiently inhibited |  |  |  | efficiently inhibited | efficiently inhibited | > 10000 nM | fully protective | inhibition of other kinases of the ScanEDGE panel [12]: No other kinase was inhibited >65%; inhibition of DYRK1b in ScanEDGE panel (DYRK1b): 79%; inhibition of RIPK1 in ScanEDGE panel (RIPK1 [13]): > 99%; Maximal protection from TCZ-induced cell death (MEFs [5]): ~ 85%; activity with respect to survival and injury markers [11]: significantly higher activity than Nec-1 |
| Cc1ccc(C(=O)Nc2ccc(CN3CCN(C)CC3)c(C(F)(F)F)c2)cc1C#Cc1cnc2cccnn12 [Ponatinib, ponatinib] |  |  |  | substantial, but lower activity |  | inhibition | inhibition | efficiently inhibited | efficiently inhibited |  | completely prevented toxicity of TNFα | inhibition of RIPK1 in HTRF assay (RIPK1 [14]): inhibition; inhibition of L157F/M92T RIPK1 in 32P autophosphorylation assay (L157F/M92T RIPK1): inhibited; activity with respect to survival and injury markers [11]: significantly higher activity than Nec-1; protection from RIPK1-dependent, RIPK3-independent apoptosis (MEFs [7]): protected |
